Measured values as given in patent US20110319379A1, “Substituted Indazole Amides And Their Use As Glucokinase Activators” (priority 2009, published 2011).

target: T1, recombinant human glucokinase (Homo sapiens, UniProt P35557); assay: Assay 2: Evaluating Activator Potency in a Matrix Assay at Multiple Glucose Concentrations; format: biochemical; details: Assay 2 matrix assay; 16 glucose concentrations; intrinsic EC50 = concentration affording a 50% reduction in the enzyme's Km (for glucose); read-out: Glucokinase EC50
T1 construct: Full-length glucokinase (beta cell isoform) was His-tagged at the N-terminus and purified by a Ni column followed by size exclusion chromatography as described above; His tag; made in house; host or cells: E. coli BL21(DE3), vector pBCGK
T1 sequence (P35557 1-465): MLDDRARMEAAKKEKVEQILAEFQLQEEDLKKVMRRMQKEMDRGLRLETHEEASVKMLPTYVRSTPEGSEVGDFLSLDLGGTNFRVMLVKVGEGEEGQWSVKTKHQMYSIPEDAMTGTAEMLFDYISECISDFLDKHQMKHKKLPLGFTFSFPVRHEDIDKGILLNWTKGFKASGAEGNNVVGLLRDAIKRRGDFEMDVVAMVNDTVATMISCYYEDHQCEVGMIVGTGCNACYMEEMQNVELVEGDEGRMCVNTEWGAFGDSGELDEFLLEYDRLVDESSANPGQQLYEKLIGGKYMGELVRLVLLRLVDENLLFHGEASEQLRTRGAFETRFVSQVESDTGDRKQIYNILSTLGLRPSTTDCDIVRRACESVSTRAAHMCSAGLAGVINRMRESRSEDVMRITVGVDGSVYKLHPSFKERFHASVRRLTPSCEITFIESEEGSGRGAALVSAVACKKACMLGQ
Description: Representative compounds of this invention were evaluated in biochemical assays (Assay 1 or Assay 2) to characterize their glucokinase activation properties.
The recombinant human glucokinase protein utilized in both assays was prepared and purified as described below.
BL21(DE3) cells (Invitrogen Corporation, Carlsbad, Calif.) containing pBCGK (C or N H is) vector were grown at 37° C. (in 2XYT) until the OD600 was between 0.6-1.0. Expression was induced by addition of isopropylthiogalactoside to a final concentration of 0.1-0.2 mM to the cells which were then incubated overnight at 23° C. The next day, cells were harvested via centrifugation at 5000 rpm for 15 minutes at 4° C. The cell pellet was stored at −80° C. for future purification.
Beta Cell Glucokinase His-Taq Purification Conditions: A Ni-NTA (Quigan, Germantown, Md.) column (15-50 mL) was used for separation. Two buffers were prepared, 1) a lysis/nickel equilibration and wash buffer and 2) a nickel elution buffer. The lysis/equilibration/wash buffer was prepared as such: 25 mM HEPES buffer at pH 7.5, 250 mM NaCl, 20 mM imidazole, and 14 mM β-mercaptoethanol as final concentrations. The elution buffer was prepared as such: 25 mM HEPES at pH 7.5, 250 mM NaCl, 400 mM imidazole, and 14 mM β-mercaptoethanol as final concentrations. The buffers were each filtered with a 0.22 μm filter prior to use. The cell pellet (1 L culture) was resuspended in 300 mL of the lysis/equilibration buffer. The cells were then lysed (3 times) with a Microfluidics Model 110Y microfluidizer (Microfluidics Corporation, Newton, Mass.). The slurry was centrifuged with a Beckman Coulter Model LE-80K ultracentrifuge (Beckman Coulter, Fullerton, Calif.) at 40,000 rpm for 45 minutes at 4° C. The supernatant was transferred to a chilled flask. A volume of 20 μl was saved for gel analysis. A Pharmacia AKTA (GMI, Inc., Ramsey, Minn.) purification system was used for separation. The prime lines were purged with lysis/equilibration buffer. The Ni-NTA column was equilibrated with 200 mL of the lysis/equilibration buffer at a flow rate of 5 mL/minute. The supernantant was loaded over the column at 4 mL/minute and the flow-through was collected in a flask. The unbound proteins were washed with lysis/equilibration buffer at a flow rate of 5 mL/minute until the ultraviolet reaches baseline. The protein was then eluted from the column with the imidazole elution buffer via imidazole gradient 20 mM to 400 mM over 320 mL. The column was then stripped of any additional protein with 80 mL of the elution buffer. The elution fractions were each 8 mL, for a total yield of 50 samples. Fractions were analyzed by sodium dodecyl sulfate polyacrylamide (SDS-PAGE) and the fractions containing protein of interest were pooled and concentrated to 10 mL using ultrafiltration cell with a 10,000 molecular weight cut-off (MWCO) Millipore membrane (Sigma-Aldrich, St. Louis, Mo.) under nitrogen gas (60 psi). Protein was further purified by size exclusion chromatography (SEC) using a […] (320 mL) (Amersham Pharmacia, Uppsala, Sweden). SEC was equilibrated with 450 mL sizing buffer containing 25 mM HEPES pH 7.0, 50 mM NaCl, and 5 mM dithiothreitol. Concentrated protein was then loaded over SEC and elution with 400 mL sizing buffer was performed overnight at 0.5 mL/minute. The elution fractions were 5 mL each. The fractions were analyzed by SDS-PAGE and protein containing fractions were pooled. Concentration was measured using Bradford Assay/BSA Standard. Purified protein was stored in small aliquots at −80° C.
Assay 2: Evaluating Activator Potency in a Matrix Assay at Multiple Glucose Concentrations
Utilizing an adaptation of this method, representative compounds of the current invention were evaluated at 22 different concentrations and 16 different glucose concentrations in a coupled enzyme assay system that detects glucokinase activity via depletion of β-NADH.

Going from `CN(C)S(=O)(=O)c1ccc(Oc2cc(C(=O)Nc3cnn(C)n3)cc3nn(C)cc23)cc1` [Example 1AJ, 4-{4-[(dimethylamino)sulfonyl]phenoxy}-2-methyl-N-(2-methyl-2H-1,2,3-triazol-4-yl)-2H-indazole-6-carboxamide] to `Cn1ccc(NC(=O)c2cc(Oc3ccc(S(N)(=O)=O)cc3)c3cn(C)nc3c2)n1` [Example 1AU, 4-[4-(aminosulfonyl)phenoxy]-2-methyl-N-(1-methyl-1H-pyrazol-3-yl)-2H-indazole-6-carboxamide], the EC50 rises from 703 nM to 6220 nM (8.8-fold). The first is the more potent here.

Compared with `CCn1cc2c(Oc3ccc(S(C)(=O)=O)cc3)cc(C(=O)Nc3ccc(C(N)=O)cn3)cc2n1` [Example 1CD, N-(5-carbamoylpyridin-2-yl)-2-ethyl-4-[4-(methylsulfonyl)phenoxy]-2H-indazole-6-carboxamide], `CCn1cc2c(Oc3ccc(S(C)(=N)=O)cc3)cc(C(=O)Nc3ccc(C)cn3)cc2n1` (single isomer, unassigned) [Example 1CW, 2-ethyl-N-(5-methylpyridin-2-yl)-4-[4-(S-methylsulfonimidoyl)phenoxy]-2H-indazole-6-carboxamide] is 2.1-fold higher in EC50: 261 nM for the first, 555 nM for the second. The first is the more potent here.

Going from `Cn1cc2c(Oc3cnc(C(=O)N4CCCC4)cn3)cc(C(=O)Nc3cnn(C)n3)cc2n1` [Example 1BW, 2-methyl-N-(2-methyl-2H-1,2,3-triazol-4-yl)-4-(5-(pyrrolidine-1-carbonyl)pyrazin-2-yloxy)-2H-indazole-6-carboxamide] to `Cn1cc2c(Oc3cnc(C(=O)N4CCC4)cn3)cc(C(=O)Nc3cnn(C)n3)cc2n1` [Example 1AH, 4-(5-(azetidine-1-carbonyl)pyrazin-2-yloxy)-2-methyl-N-(2-methyl-2H-1,2,3-triazol-4-yl)-2H-indazole-6-carboxamide], the EC50 rises from 4640 nM to 36000 nM (7.8-fold).

Going from `CCn1cc2c(Oc3cnc(N(C)S(C)(=O)=O)cn3)cc(C(=O)Nc3ccc(C)cn3)cc2n1` [Example 1AN, 2-ethyl-4-({5-[methyl(methylsulfonyl)amino]pyrazin-2-yl}oxy)-N-(5-methylpyridin-2-yl)-2H-indazole-6-carboxamide] to `CCn1cc2c(Oc3cnc(NS(C)(=O)=O)cn3)cc(C(=O)Nc3ccc(C)cn3)cc2n1` [Example 1AT, 2-ethyl-N-(5-methylpyridin-2-yl)-4-({5-[(methylsulfonyl)amino]pyrazin-2-yl}oxy)-2H-indazole-6-carboxamide], the EC50 rises from 532 nM to 4920 nM (9.2-fold). The first is the more potent here.

First: Cn1ccc(NC(=O)c2cc(Oc3cnc(C(=O)N4CCC4)cn3)c3cn(C)nc3c2)n1 [Example 1BS, 4-(5-(azetidine-1-carbonyl)pyrazin-2-yloxy)-2-methyl-N-(1-methyl-1H-pyrazol-3-yl)-2H-indazole-6-carboxamide]
Second: Cn1ccc(NC(=O)c2cc(Oc3cnc(C(=O)N4CCCC4)cn3)c3cn(C)nc3c2)n1 [Example 1BO, 2-methyl-N-(1-methyl-1H-pyrazol-3-yl)-4-(5-(pyrrolidine-1-carbonyl)pyrazin-2-yloxy)-2H-indazole-6-carboxamide]
The EC50 of the first is 3.2-fold higher: 798 nM for the first, 250 nM for the second. The second is the more potent here.

First: CCn1cc2c(Oc3ccc(S(C)(=O)=O)cc3)cc(C(=O)Nc3ncns3)cc2n1 [Example 1CL, 2-ethyl-4-[4-(methylsulfonyl)phenoxy]-N-1,2,4-thiadiazol-5-yl-2H-indazole-6-carboxamide]
Second: CCOc1cnc(NC(=O)c2cc(Oc3ccc(S(N)(=O)=O)cc3)c3cn(CC)nc3c2)cn1 [Example 1BI, 4-[4-(aminosulfonyl)phenoxy]-N-(5-ethoxypyrazin-2-yl)-2-ethyl-2H-indazole-6-carboxamide]
The EC50 of the first is 54-fold lower: 919 nM for the first, 49900 nM for the second. The first is the more potent here.

`Cc1ccc(NC(=O)c2cc(Oc3ccc(S(C)(=O)=O)nc3)c3cn(C)nc3c2)nc1` [Example 1AP, 2-methyl-N-(5-methylpyridin-2-yl)-4-{[6-(methylsulfonyl)pyridin-3-yl]oxy}-2H-indazole-6-carboxamide] and `Cn1ccc(NC(=O)c2cc(Oc3ccc(S(C)(=O)=O)nc3)c3cn(C)nc3c2)n1` [Example 1AO, 2-methyl-N-(1-methyl-1H-pyrazol-3-yl)-4-{[6-(methylsulfonyl)pyridin-3-yl]oxy}-2H-indazole-6-carboxamide] are within 1.5-fold of each other in EC50: 1430 nM for the first, 1290 nM for the second.

Going from `CCn1cc2c(Oc3cnc(C(=O)N4CCCC4)cn3)cc(C(=O)Nc3cnc(C)cn3)cc2n1` [Example 1BP, 2-ethyl-N-(5-methylpyrazin-2-yl)-4-(5-(pyrrolidine-1-carbonyl)pyrazin-2-yloxy)-2H-indazole-6-carboxamide] to `CCn1cc2c(Oc3cnc(C(=O)N4CCC4)cn3)cc(C(=O)Nc3ccn(C)n3)cc2n1` [Example 1BQ, 4-(5-(azetidine-1-carbonyl)pyrazin-2-yloxy)-2-ethyl-N-(1-methyl-1H-pyrazol-3-yl)-2H-indazole-6-carboxamide], the EC50 rises from 290 nM to 699 nM (2.4-fold). The first is the more potent here.

`CCn1cc2c(Oc3cnc(C(N)=O)cn3)cc(C(=O)Nc3ccc(C)cn3)cc2n1` [Example 1CO, 4-(5-carbamoylpyrazin-2-yloxy)-2-ethyl-N-(5-methylpyridin-2-yl)-2H-indazole-6-carboxamide] and `CC(=O)N(C)c1cnc(Oc2cc(C(=O)Nc3ccc(C)cn3)cc3nn(C)cc23)cn1` [Example 1CN, 2-methyl-4-(5-(N-methylacetamido)pyrazin-2-yloxy)-N-(5-methylpyridin-2-yl)-2H-indazole-6-carboxamide] are within 1.5-fold of each other in EC50: 1880 nM for the first, 2320 nM for the second.

First: CC(C)n1cc2c(Oc3cnc(C(=O)N(C)C)cn3)cc(C(=O)Nc3ccn(C)n3)cc2n1 [Example 1BV, 4-(5-(dimethylcarbamoyl)pyrazin-2-yloxy)-2-isopropyl-N-(1-methyl-1H-pyrazol-3-yl)-2H-indazole-6-carboxamide]
Second: CCn1cc2c(Oc3cnc(C(=O)N(C)C)cn3)cc(C(=O)Nc3cnc(OC)cn3)cc2n1 [Example 1AF, 4-(5-(dimethylcarbamoyl)pyrazin-2-yloxy)-2-ethyl-N-(5-methoxypyrazin-2-yl)-2H-indazole-6-carboxamide]
The EC50 of the first is 3-fold higher: 1590 nM for the first, 532 nM for the second. The second is the more potent here.

`CNS(=O)(=O)c1ccc(Oc2cc(C(=O)Nc3cnc(C)cn3)cc3nn(C)cc23)cc1` [Example 1AK, 4-{4-[(methylamino)sulfonyl]phenoxy}-2-methyl-N-(5-methylpyrazin-2-yl)-2H-indazole-6-carboxamide] and `CNS(=O)(=O)c1ccc(Oc2cc(C(=O)Nc3cnc(OC)cn3)cc3nn(C)cc23)cc1` [Example 1BN, N-(5-methoxypyrazin-2-yl)-2-methyl-4-{4-[(methylamino)sulfonyl]phenoxy}-2H-indazole-6-carboxamide] are within 1.5-fold of each other in EC50: 878 nM for the first, 684 nM for the second.
